According to US20240424083A1 (priority 2023, published 2024):
Peptide text beside a SMILES is read from it. * marks the point of attachment. Cbz = O=C(OCc1ccccc1)*; CH2F = FC*

Assays:
Type in all cases: cell-based, mouse
BMDMs [1] = conditions: N15m1-infected BMDMs, 24 hpi; zVAD 20 μM, Nec-1 25 μM, VX-765 20 μM
Method: Cell death assays. Cell viability and Caspase 3/7 activity were measured using CellTiter Glo (G7571, Promega) or CaspaseGlo 3/7 (G8091, Promega) respectively, according to the manufacturer's protocol, with modification.
Cell death assays. Cell viability and Caspase 3/7 activity were measured using CellTiter Glo (G7571, Promega) or CaspaseGlo 3/7 (G8091, Promega) respectively, according to the manufacturer's protocol, with modification. Briefly, 3.0×10^5 BMDMs/well wereplated in 24-well plates and infected at an MOI of 0.1 for 1 h in serum-free media. Media was replaced with complete media, or for addition of chemical inhibitors, viral inoculum was replaced with completed BMM media containing indicated concentration of inhibitors. Infected BMDMs were incubated for 24 h at 37° C./5% CO2. BMDMs were washed twice with 1×PBS and lysed with 100 μL Glo reagent/medium mixture (1:1). 50 μL of cell lysate was used for measuring the luminescence signal. Standard deviation and unpaired t test were performed on technical triplicates and data are representative of three independent experiments.

2′5′-OAS/RNaseL system = conditions: N15m1-infected BMDMs, 18 hpi; zVAD 20 μM, C16 1 μM
Method: Bioanalyzer RNA analysis. Equal amounts of total RNA purified from BMDMs were analyzed on an Agilent 2100 Bioanalyzer using RNA Nano LabChips.

BMDMs [2] = tested on: BMDMs

## COC(=O)C[C@H](NC(=O)[C@H](C)NC(=O)[C@@H](NC(=O)OCc1ccccc1)C(C)C)C(=O)CF [zVAD] (Cbz-Val-Ala-Asp(OMe)-CH2F)
BMDMs [1]
  effect of inhibitor on virus-induced cell death: prevented virus-induced cell death
2′5′-OAS/RNaseL system
  effect of inhibitor on degradation of host rRNA: not inhibited
BMDMs [2]
  effect of inhibitor on caspase 3/7 activity in N15m1-infected BMDMs: inhibited
